Measured values taken from PMC5843908, “Detection of PRMT1 inhibitors with stopped flow fluorescence” (Signal Transduction and Targeted Therapy, 2018).

Biological target: PRMT1 (Homo sapiens, UniProt Q99873)
Experiment: Stopped flow fluorescence assay of PRMT1 inhibition ([PRMT1] 0.2 µM, [SAM] 3.5 µM, [H4FL] 0.4 µM);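 also: Stopped-flow traces of fluorescent H4FL peptide quenched on binding PRMT1 and restored on release, recorded 900 s, averaged over repeated drives and fit to a double-exponential model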
Assay type: biochemical
Source text: To obtain the IC50 of a specific inhibitor, the relative activities of the enzyme in presence of different concentrations of the inhibitor are required (equation 1).[37] […] By adding different concentrations of the inhibitor to the reaction mixture, the relative activity of the enzyme can be obtained by normalizing K to the reaction rate without the inhibitor, and then calculate the IC50 value using equation 1. In our stopped flow fluorescence assay, the reaction rate of Phase I and Phase II can be obtained by approximating and deriving the double-exponential equation (equation 2). In Phase I, during a very short period of time (where t is small), the curve is nearly linear, and the exponential equation can be approximately described as F1 = a · (−k1) · t. Therefore, the derivation of F1 equals –k1∙a, which is the slope of Phase I. Similarly, the curve of Phase II at early stage can be approximately described as F2 = b · (−k2) · t. This derivation of F2 equals –k2∙b, which is the slope of Phase II. The slopes at various inhibitor concentrations, normalized to the slope in the absence of inhibitor, can be used to obtain the corresponding relative enzyme activity from which the potency value (IC50) of the inhibitor can be calculated with equation 1.
In a stopped flow fluorescence assay, the binding of H4FL to PRMT1 (or the PRMT1—cofactor complex) quenches the peptide fluorescence, while release of the peptide restores the fluorescence. […] The widths of the entrance and exit slits of the monochromator were set to 0.5 mm. An equal volume of samples from two syringes was driven into the observation cell for mixing measurements. The H4FL concentration in all experiments was 0.4 μM. […] The fluorescent signal was recorded for 900 seconds, with 10,000 data points in total. Data from four to six drives were collected and averaged for each curve.
After averaging the shot data, the association time courses were fitted to a double-exponential function (equation 2) using GraphPad Prism (CA, USA). […] F is the fluorescence intensity at time t, k1, and k2 are the rate constants for Phase I and Phase II, a is the amplitude of the fluorescence change for k1, and b is the amplitude of the fluorescence change for k2. Simulation curves based on the values of a, b, k1, and k2 at fixed c = 1 were produced using Matlab. The IC50 value of inhibitors is determined by equation 1 using GraphPad Prism (CA, USA).

Sequence of PRMT1 (Q99873 29-371): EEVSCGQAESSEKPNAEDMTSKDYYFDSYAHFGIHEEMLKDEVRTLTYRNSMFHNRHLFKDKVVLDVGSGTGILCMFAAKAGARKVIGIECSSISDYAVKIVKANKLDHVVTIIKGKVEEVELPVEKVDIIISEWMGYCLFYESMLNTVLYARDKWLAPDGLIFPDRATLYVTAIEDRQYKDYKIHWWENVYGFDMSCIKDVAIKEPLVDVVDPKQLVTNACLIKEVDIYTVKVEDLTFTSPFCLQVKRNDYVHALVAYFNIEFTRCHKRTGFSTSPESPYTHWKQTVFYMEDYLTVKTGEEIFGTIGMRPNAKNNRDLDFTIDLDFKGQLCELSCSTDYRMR

-b·k2 (slope of Phase II) ([SAH] 0.1 µM): 0.000677 ± 1.35e-06 s⁻¹ | a (amplitude, Phase I) ([SAH] 0.1 µM): 0.2027 ± 4.00E-04 | a·k1 (slope of Phase I) ([SAH] 0.1 µM): 0.0122 ± 4.9e-05 s⁻¹ | b (amplitude, Phase II) ([SAH] 0.1 µM): -0.2201 ± 1.26E-04 | k1 (rate constant, Phase I) ([SAH] 0.1 µM): 0.05995 ± 2.11E-04 s^-1 | k2 (rate constant, Phase II) ([SAH] 0.1 µM): 0.003078 ± 5.86E-06 s^-1 | -b·k2 (slope of Phase II) ([SAH] 0.25 µM): 0.000561 ± 1.3e-06 s⁻¹ | a (amplitude, Phase I) ([SAH] 0.25 µM): 0.2214 ± 4.39E-04 | a·k1 (slope of Phase I) ([SAH] 0.25 µM): 0.0144 ± 5.59e-05 s⁻¹ | b (amplitude, Phase II) ([SAH] 0.25 µM): -0.2306 ± 1.33E-04 | k1 (rate constant, Phase I) ([SAH] 0.25 µM): 0.06487 ± 2.18E-04 s^-1 | k2 (rate constant, Phase II) ([SAH] 0.25 µM): 0.002434 ± 5.47E-06 s^-1 | -b·k2 (slope of Phase II) ([SAH] 0.5 µM): 0.000352 ± 1.25e-06 s⁻¹ | a (amplitude, Phase I) ([SAH] 0.5 µM): 0.2658 ± 3.49E-04 | b (amplitude, Phase II) ([SAH] 0.5 µM): -0.2629 ± 3.89E-04 | k1 (rate constant, Phase I) ([SAH] 0.5 µM): 0.06324 ± 1.36E-04 s^-1 | k2 (rate constant, Phase II) ([SAH] 0.5 µM): 0.00134 ± 4.32E-06 s^-1 | -b·k2 (slope of Phase II) ([SAH] 1 µM): 0.000234 ± 1.38e-06 s⁻¹ | a (amplitude, Phase I) ([SAH] 1 µM): 0.2726 ± 3.65E-04 | a·k1 (slope of Phase I) ([SAH] 1 µM): 0.0186 ± 4.67e-05 s⁻¹ | b (amplitude, Phase II) ([SAH] 1 µM): -0.2134 ± 6.03E-04 | k1 (rate constant, Phase I) ([SAH] 1 µM): 0.06815 ± 1.45E-04 s^-1 | k2 (rate constant, Phase II) ([SAH] 1 µM): 0.001095 ± 5.70E-06 s^-1 | -b·k2 (slope of Phase II) ([SAH] 2.5 µM): 0.00011 ± 2.16e-06 s⁻¹ | a (amplitude, Phase I) ([SAH] 2.5 µM): 0.2961 ± 3.73E-04 | a·k1 (slope of Phase I) ([SAH] 2.5 µM): 0.0213 ± 4.93e-05 s⁻¹ | b (amplitude, Phase II) ([SAH] 2.5 µM): -0.1862 ± 2.16E-03 | k1 (rate constant, Phase I) ([SAH] 2.5 µM): 0.07177 ± 1.40E-04 s^-1 | k2 (rate constant, Phase II) ([SAH] 2.5 µM): 0.0005933 ± 9.36E-06 s^-1 | -b·k2 (slope of Phase II) ([SAH] 5 µM): 5.14e-05 ± 8.08e-06 s⁻¹ | a (amplitude, Phase I) ([SAH] 5 µM): 0.2962 ± 3.74E-04 | b (amplitude, Phase II) ([SAH] 5 µM): -0.3000 ± 3.18E-02 | k1 (rate constant, Phase I) ([SAH] 5 µM): 0.05757 ± 1.17E-04 s^-1 | k2 (rate constant, Phase II) ([SAH] 5 µM): 0.0001714 ± 1.98E-05 s^-1 | -b·k2 (slope of Phase II) ([SAH] 10 µM): 2.22e-05 ± 2.71e-05 s⁻¹ | a (amplitude, Phase I) ([SAH] 10 µM): 0.2774 ± 5.02E-04 | b (amplitude, Phase II) ([SAH] 10 µM): -0.2999 ± 2.24E-01 | increasing trend of Phase II ([SAH] 10 µM): almost abolished | k1 (rate constant, Phase I) ([SAH] 10 µM): 0.05889 ± 1.70E-04 s^-1 | k2 (rate constant, Phase II) ([SAH] 10 µM): 7.42e-05 ± 5.74e-05 s⁻¹
SMILES: Nc1ncnc2c1ncn2[C@@H]1O[C@H](CSCC[C@H](N)C(=O)O)[C@@H](O)[C@H]1O [SAH, S-adenosyl homocysteine]
